biological target: AMPK; experiment: AMPK activation, enzyme-linked immunosorbent assay; format: biochemical; details: compounds of Table 5 (Table 10)

Row | SMILES | EC50
1 | O=C(NC1CCN(C(=O)c2ccc(F)cc2)CC1)c1ccc(OC2CCN(c3ccc(C(F)(F)F)cc3)CC2)c(F)c1 [5-31, 3-fluoro-N-(1-(4-fluorobenzoyl)piperidin-4-yl)-4-(1-(4-(trifluoromethyl)phenyl)piperidin-4-yloxy)benzamide] | < 1000 nM
2 | COC(=O)c1ccc(CN2CCC(NC(=O)c3ccc(OC4CCN(c5ccc(C(F)(F)F)cc5)CC4)c(F)c3)CC2)cc1 [5-33, methyl 4-((4-(3-fluoro-4-(1-(4-(trifluoromethyl)phenyl)piperidin-4-yloxy)benzamido)piperidin-1-yl)methyl)benzoate] | < 1000 nM
3 | CC(C)S(=O)(=O)N1CCC(NC(=O)c2ccc(OC3CCN(c4ccc(C(F)(F)F)cc4)CC3)c(F)c2)CC1 [5-34, 3-fluoro-N-(1-(isopropylsulfonyl)piperidin-4-yl)-4-(1-(4-(trifluoromethyl)phenyl)piperidin-4-yloxy)benzamide] | < 1000 nM
4 | O=C(O)c1ccc(CN2CCC(NC(=O)c3ccc(OC4CCN(c5ccc(C(F)(F)F)cc5)CC4)c(F)c3)CC2)cc1 [5-35, 4-((4-(3-fluoro-4-(1-(4-(trifluoromethyl)phenyl)piperidin-4-yloxy)benzamido)piperidin-1-yl)methyl)benzoic acid] | 1000 to 10000 nM
5 | CC(C)(C)c1ccc(CN2CCC(Oc3ccc(C(=O)NC4CCN(c5ccccc5)CC4)cc3F)CC2)cc1 [5-36, 4-(1-(4-tert-butylbenzyl)piperidin-4-yloxy)-3-fluoro-N-(1-phenylpiperidin-4-yl)benzamide] | < 1000 nM
6 | O=C(NC1CCN(C(=O)c2ccncc2)CC1)c1ccc(OC2CCN(c3ccc(C(F)(F)F)cc3)CC2)c(F)c1 [5-40, 3-fluoro-N-(1-isonicotinoylpiperidin-4-yl)-4-(1-(4-(trifluoromethyl)phenyl)piperidin-4-yloxy)benzamide] | < 1000 nM
7 | N#Cc1ccc(CN2CCC(NC(=O)c3ccc(OC4CCN(c5ccc(C(F)(F)F)cc5)CC4)c(F)c3)CC2)cc1 [5-43, N-(1-(4-cyanobenzyl)piperidin-4-yl)-3-fluoro-4-(1-(4-(trifluoromethyl)phenyl)piperidin-4-yloxy)benzamide] | < 1000 nM
8 | N#Cc1ccc(N2CCC(Oc3ccc(C(=O)NC4CCN(Cc5ccncc5)CC4)cc3F)CC2)cc1 [5-44, 4-(1-(4-cyanophenyl)piperidin-4-yloxy)-3-fluoro-N-(1-(pyridin-4-ylmethyl)piperidin-4-yl)benzamide] | < 1000 nM
9 | N#Cc1ccc(CN2CCC(NC(=O)c3ccc(OC4CCN(c5ccc(C#N)cc5)CC4)c(F)c3)CC2)cc1 [5-45, N-(1-(4-cyanobenzyl)piperidin-4-yl)-4-(1-(4-cyanophenyl)piperidin-4-yloxy)-3-fluorobenzamide] | < 1000 nM
10 | O=C(NC1CCN(Cc2ccccc2)CC1)c1cccc(OC2CCN(c3ccc(C(F)(F)F)cc3)CC2)c1 [5-46, N-(1-benzylpiperidin-4-yl)-3-(1-(4-(trifluoromethyl)phenyl)piperidin-4-yloxy)benzamide] | < 1000 nM
11 | O=C(NC1CCN(Cc2ccccc2)CC1)c1ccc(OC2CCN(c3ccc(C(F)(F)F)cc3)CC2)cc1Cl [5-47, N-(1-benzylpiperidin-4-yl)-2-chloro-4-(1-(4-(trifluoromethyl)phenyl)piperidin-4-yloxy)benzamide] | < 1000 nM
12 | N#Cc1ccc(N2CCC(Oc3cccc(C(=O)NC4CCN(Cc5ccccc5)CC4)c3)CC2)cc1 [5-48, N-(1-benzylpiperidin-4-yl)-3-(1-(4-cyanophenyl)piperidin-4-yloxy)benzamide] | < 1000 nM
13 | N#Cc1ccc(N2CCC(Oc3ccc(C(=O)NC4CCN(Cc5ccccc5)CC4)c(Cl)c3)CC2)cc1 [5-49, N-(1-benzylpiperidin-4-yl)-2-chloro-4-(1-(4-cyanophenyl)piperidin-4-yloxy)benzamide] | < 1000 nM
14 | N#Cc1ccc(CN2CCC(Oc3cccc(C(=O)NC4CCN(Cc5ccccc5)CC4)c3)CC2)cc1 [5-50, N-(1-benzylpiperidin-4-yl)-3-(1-(4-cyanobenzyl)piperidin-4-yloxy)benzamide] | 1000 to 10000 nM
15 | N#Cc1ccc(CN2CCC(Oc3ccc(C(=O)NC4CCN(Cc5ccccc5)CC4)c(Cl)c3)CC2)cc1 [5-51, N-(1-benzylpiperidin-4-yl)-2-chloro-4-(1-(4-cyanobenzyl)piperidin-4-yloxy)benzamide] | < 1000 nM
16 | O=C(NC1CCN(Cc2ccccc2)CC1)c1cccc(OC2CCN(Cc3ccc(C(F)(F)F)cc3)CC2)c1 [5-52, N-(1-benzylpiperidin-4-yl)-3-(1-(4-(trifluoromethyl)benzyl)piperidin-4-yloxy)benzamide] | 1000 to 10000 nM
17 | O=C(NC1CCN(Cc2ccccc2)CC1)c1cccc(OC2CCN(c3ccncc3)CC2)c1 [5-53, N-(1-benzylpiperidin-4-yl)-3-(1-(pyridin-4-yl)piperidin-4-yloxy)benzamide] | 10000 to 20000 nM
18 | CN1CCC(NC(=O)c2ccc(OC3CCN(Cc4ccc(C(F)(F)F)cc4)CC3)c(Cl)c2)CC1 [5-58, 3-chloro-N-(1-methylpiperidin-4-yl)-4-(1-(4-(trifluoromethyl)benzyl)piperidin-4-yloxy)benzamide] | 1000 to 10000 nM
19 | O=C(NC1CCN(Cc2ccccc2)CC1)c1cc(Cl)c(OC2CCN(Cc3cccc(C(F)(F)F)c3)CC2)c(Cl)c1 [5-62, N-(1-benzylpiperidin-4-yl)-3,5-dichloro-4-(1-(3-(trifluoromethyl)benzyl)piperidin-4-yloxy)benzamide] | < 1000 nM
20 | O=C(NC1CCN(Cc2ccccc2)CC1)c1ccc(OC2CCN(Cc3ccc(OC(F)(F)F)cc3)CC2)cc1 [5-63, N-(1-benzylpiperidin-4-yl)-4-(1-(4-(trifluoromethoxy)benzyl)piperidin-4-yloxy)benzamide] | < 1000 nM
21 | O=C(NC1CCN(Cc2ccc(F)cc2)CC1)c1ccc(OC2CCN(Cc3ccc(Cl)cc3)CC2)c(Cl)c1 [5-66, 3-chloro-4-(1-(4-chlorobenzyl)piperidin-4-yloxy)-N-(1-(4-fluorobenzyl)piperidin-4-yl)benzamide] | < 1000 nM

Results, then the compound that gave them:

Row | EC50 | SMILES
22 | < 1000 nM | O=C(NC1CCN(Cc2ccccn2)CC1)c1ccc(OC2CCN(c3ccc(C(F)(F)F)cc3)CC2)c(F)c1 [5-32, 3-fluoro-N-(1-(pyridin-2-ylmethyl)piperidin-4-yl)-4-(1-(4-(trifluoromethyl)phenyl)piperidin-4-yloxy)benzamide]
23 | < 1000 nM | O=C(NC1CCN(Cc2ccccc2)CC1)c1ccc(OC2CCN(Cc3ccncc3)CC2)c(F)c1 [5-37, N-(1-benzylpiperidin-4-yl)-3-fluoro-4-(1-(pyridin-4-ylmethyl)piperidin-4-yloxy)benzamide]
24 | 1000 to 10000 nM | O=C(NC1CCN(Cc2ccccc2)CC1)c1ccc(OC2CCN(Cc3cccnc3)CC2)c(F)c1 [5-38, N-(1-benzylpiperidin-4-yl)-3-fluoro-4-(1-(pyridin-3-ylmethyl)piperidin-4-yloxy)benzamide]
25 | 1000 to 10000 nM | O=C(NC1CCN(Cc2ccccc2)CC1)c1ccc(OC2CCN(Cc3ccccn3)CC2)c(F)c1 [5-39, N-(1-benzylpiperidin-4-yl)-3-fluoro-4-(1-(pyridin-2-ylmethyl)piperidin-4-yloxy)benzamide]
26 | < 1000 nM | N#Cc1ccc(CN2CCC(Oc3ccc(C(=O)NC4CCN(Cc5ccccc5)CC4)cc3F)CC2)cc1 [5-41, N-(1-benzylpiperidin-4-yl)-4-(1-(4-cyanobenzyl)piperidin-4-yloxy)-3-fluorobenzamide]
27 | < 1000 nM | Cc1ccc(CN2CCC(Oc3ccc(C(=O)NC4CCN(Cc5ccccc5)CC4)cc3F)CC2)cc1 [5-42, N-(1-benzylpiperidin-4-yl)-3-fluoro-4-(1-(4-methylbenzyl)piperidin-4-yloxy)benzamide]
28 | < 1000 nM | O=C(NC1CCN(Cc2ccccc2)CC1)c1ccc(OC2CCN(Cc3ccc(OC(F)(F)F)cc3)CC2)c(Cl)c1 [5-54, N-(1-benzylpiperidin-4-yl)-3-chloro-4-(1-(4-(trifluoromethoxy)benzyl)piperidin-4-yloxy)benzamide]
29 | < 1000 nM | O=C(NC1CCN(Cc2ccccc2)CC1)c1ccc(OC2CCN(Cc3ccc(C(F)(F)F)cc3)CC2)c(F)c1 [5-55, N-(1-benzylpiperidin-4-yl)-3-fluoro-4-(1-(4-(trifluoromethyl)benzyl)piperidin-4-yloxy)benzamide]
30 | < 1000 nM | O=C(NC1CCN(Cc2ccccc2)CC1)c1ccc(OC2CCN(Cc3ccc(C(F)(F)F)cc3)CC2)c(Cl)c1 [5-56, N-(1-benzylpiperidin-4-yl)-3-chloro-4-(1-(4-(trifluoromethyl)benzyl)piperidin-4-yloxy)benzamide]
31 | < 1000 nM | O=C(NC1CCN(Cc2ccccc2)CC1)c1ccc(OC2CCN(Cc3ccc(OC(F)(F)F)cc3)CC2)c(F)c1 [5-57, N-(1-benzylpiperidin-4-yl)-3-fluoro-4-(1-(4-(trifluoromethoxy)benzyl)piperidin-4-yloxy)benzamide]
32 | < 1000 nM | O=C(NC1CCN(Cc2ccccc2)CC1)c1ccc(OC2CCN(Cc3cccc(C(F)(F)F)c3)CC2)c(F)c1 [5-59, N-(1-benzylpiperidin-4-yl)-3-fluoro-4-(1-(3-(trifluoromethyl)benzyl)piperidin-4-yloxy)benzamide]
33 | < 1000 nM | O=C(NC1CCN(Cc2ccccc2)CC1)c1ccc(OC2CCN(Cc3cccc(C(F)(F)F)c3)CC2)c(Cl)c1 [5-60, N-(1-benzylpiperidin-4-yl)-3-chloro-4-(1-(3-(trifluoromethyl)benzyl)piperidin-4-yloxy)benzamide]
34 | < 1000 nM | O=C(NC1CCN(Cc2ccccc2)CC1)c1ccc(OC2CCN(Cc3ccc(F)cc3)CC2)c(F)c1 [5-61, N-(1-benzylpiperidin-4-yl)-3-fluoro-4-(1-(4-fluorobenzyl)piperidin-4-yloxy)benzamide]
35 | < 1000 nM | O=C(NC1CCN(Cc2ccccc2)CC1)c1ccc(OC2CCN(Cc3ccc(Cl)cc3)CC2)c(F)c1 [5-64, N-(1-benzylpiperidin-4-yl)-4-(1-(4-chlorobenzyl)piperidin-4-yloxy)-3-fluorobenzamide]
36 | < 1000 nM | O=C(NC1CCN(Cc2ccccc2)CC1)c1ccc(OC2CCN(Cc3ccc(Cl)cc3)CC2)c(Cl)c1 [5-65, N-(1-benzylpiperidin-4-yl)-3-chloro-4-(1-(4-chlorobenzyl)piperidin-4-yloxy)benzamide]
37 | < 1000 nM | N#Cc1ccc(CN2CCC(Oc3ccc(C(=O)NC4CCN(Cc5ccccc5)CC4)cc3Cl)CC2)cc1 [5-67, N-(1-benzylpiperidin-4-yl)-3-chloro-4-(1-(4-cyanobenzyl)piperidin-4-yloxy)benzamide]
